The source of these data is patent US20140288044A1, “COMPOSITIONS AND THERAPEUTIC USES OF IKK-RELATED KINASE EPSILON AND TANKBINDING KINASE 1 INHIBITORS” (Alzheimer's Institute of America, Inc., priority 2011, published 2014).

One test concerns the target T1, IKKε (Homo sapiens, UniProt Q14164).
T1 construct: His-tag (in-house Sf9 preparation) or GST-tag (purchased Invitrogen preparation); these are alternatives, not both on one protein; host or cells: Sf9 cells
T1 sequence (Q14164 1-716): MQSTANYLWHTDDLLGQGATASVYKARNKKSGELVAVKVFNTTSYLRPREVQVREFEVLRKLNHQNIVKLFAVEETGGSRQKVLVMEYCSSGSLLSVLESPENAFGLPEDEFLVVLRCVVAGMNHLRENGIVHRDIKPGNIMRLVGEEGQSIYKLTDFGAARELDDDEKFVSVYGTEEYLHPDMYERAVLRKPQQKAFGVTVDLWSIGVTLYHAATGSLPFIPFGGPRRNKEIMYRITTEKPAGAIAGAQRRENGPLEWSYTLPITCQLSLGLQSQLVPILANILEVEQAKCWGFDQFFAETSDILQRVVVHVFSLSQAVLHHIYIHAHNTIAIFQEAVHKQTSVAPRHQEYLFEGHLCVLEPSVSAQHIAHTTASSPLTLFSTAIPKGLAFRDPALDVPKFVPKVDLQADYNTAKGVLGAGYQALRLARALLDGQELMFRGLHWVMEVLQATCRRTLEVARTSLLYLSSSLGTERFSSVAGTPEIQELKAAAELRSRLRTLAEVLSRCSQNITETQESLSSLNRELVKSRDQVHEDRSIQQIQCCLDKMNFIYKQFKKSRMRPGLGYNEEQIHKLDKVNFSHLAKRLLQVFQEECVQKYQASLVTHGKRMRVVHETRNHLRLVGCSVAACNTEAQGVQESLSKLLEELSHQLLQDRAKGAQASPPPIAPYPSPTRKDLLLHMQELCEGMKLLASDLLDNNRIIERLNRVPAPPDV
Kind of test: In-vitro IKKε kinase assay (radiolabelled ATP, filterplate). Type of test: biochemical. Put shortly: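 His-tagged IKKε from Sf9 cells or GST-tagged IKKε, with myelin basic protein, casein or dephosphorylated casein as substrate and 32 μM ATP (2× Km) plus [γ^33]ATP. "Normal" assay used 0.1 μg/ml enzyme; "sensitized" used 0.015 μg/ml with dephosphorylated casein only. Stopped after 30–45 min with phosphoric acid; P-81 filter counts normalized to DMSO after background subtraction.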

The subject of test [1] is IKKε-mediated phosphorylation of IRF3. Kind of test: ELISA for in-situ phosphorylation of IRF3 (phospho-Ser396) in HEK293T cells cotransfected with IRF3 and IKKε. In kind it is cell-based. The following applies: Homo sapiens, HEK-293T, 20 h, HEK293T cells, 20 hours, read-out: IC50, in-situ IKKε-mediated phosphorylation of IRF3. Put shortly: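 HEK293T cells cotransfected with IRF3 and IKKε were treated with compound for 20 h, and lysates were assayed by ELISA for phospho-Ser396 IRF3, normalized to DMSO. Viability was checked in parallel by CellTiter-Glo. For TBK1, cells cotransfected with IRF7 and TBK1 were treated overnight and probed by Western blot for phospho-Ser477/Ser479 IRF7.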
(In an ELISA, binding on a coated surface is turned into a signal by an enzyme label.)

[2] abbreviates: in-vitro IKKε kinase inhibition assays, given as 0.005 μM (5 nM), read-out: IKKε kinase inhibitory activity (IC50 value).
The mark [3] stands for this setting: "sensitized" assay, read-out: IC50, inhibition of the kinase activity of IKKε.
The mark [4] stands for this setting: range given from about 1 μM to about 250 nM.

SMILES strings stand for the structures. Where two headings read alike, the source gives them in different places.

For orientation: IC50 means the concentration at which inhibition is half-maximal.

Regarding `N#Cc1cc(-c2ccnc(Nc3ccc(-c4cn[nH]c4)nc3)n2)ccc1OC1CCOCC1` [Example Compound 78, 5-(2-{[6-(1H-Pyrazol-4-yl)pyridin-3-yl]amino}pyrimidin-4-yl)-2-(tetrahydro-2H-pyran-4-yloxy)benzonitrile], the IC50 on IKKε (setting [2]) is below 5 nM; in test [1], below 100 nM.

As to `N#Cc1cc(-c2ccnc(Nc3ccc(-c4cccnc4)nc3)n2)ccc1OC1CCOCC1` [Example Compound 79, 5-[2-(2,3′-Bipyridin-5-ylamino)pyrimidin-4-yl]-2-(tetrahydro-2H-pyran-4-yloxy)benzonitrile], the values for the IC50 (at IKKε (setting [3]); on IKKε (setting [2]); in test [1] (setting [4])) were below 5 nM, below 5 nM and 250 to 1000 nM, respectively.

`COCCNc1ncc(-c2ccc(Nc3nccc(-c4ccc(OC5CCOCC5)c(C#N)c4)n3)cn2)cn1` [Example Compound 80, 5-{2-[(6-{2-[(2-Methoxyethyl)amino]pyrimidin-5-yl}pyridin-3-yl)amino]pyrimidin-4-yl}-2-(tetrahydro-2H-pyran-4-yloxy)benzonitrile]: the IC50 is below 5 nM at IKKε (setting [2]) and below 100 nM in test [1].

Regarding `Cn1cc(-c2cc(Nc3nccc(-c4ccc(OC5CCOCC5)c(C#N)c4)n3)ccn2)cn1` [Example Compound 82, 5-(2-{[2-(1-Methyl-1H-pyrazol-4-yl)pyridin-4-yl]amino}pyrimidin-4-yl)-2-(tetrahydro-2H-pyran-4-yloxy)benzonitrile], the IC50 was below 5 nM at IKKε (setting [3]), below 5 nM on IKKε (setting [2]) and below 100 nM in test [1].

In the case of `N#Cc1cc(-c2ccnc(Nc3ccnc(-c4cn[nH]c4)c3)n2)ccc1OC1CCOCC1` [Example Compound 83, 5-(2-{[2-(1H-Pyrazol-4-yl)pyridin-4-yl]amino}pyrimidin-4-yl)-2-(tetrahydro-2H-pyran-4-yloxy)benzonitrile], the results for the IC50 (on IKKε (setting [3]); on IKKε (setting [2]); in test [1]) were below 5 nM, below 5 nM and 100 to 250 nM, respectively.

As to `CN(C)C1CCN(c2ccc(Nc3nccc(-c4ccc(OC5CCOCC5)c(C#N)c4)n3)nn2)C1` (centres unmarked) [Example Compound 87, 5-[2-({6-[3-(Dimethylamino)pyrrolidin-1-yl]pyridazin-3-yl}amino)pyrimidin-4-yl]-2-(tetrahydro-2H-pyran-4-yloxy)benzonitrile], the values for the IC50 (at IKKε (setting [3]); on IKKε (setting [2]); in test [1] (setting [4])) were below 5 nM, below 5 nM and 250 to 1000 nM, respectively.

With `N#Cc1cc(-c2ccnc(Nc3ccc(N4CCOCC4)nn3)n2)ccc1OC1CCOCC1` [Example Compound 88, 5-(2-{[6-(Morpholin-4-yl)pyridazin-3-yl]amino}pyrimidin-4-yl)-2-(tetrahydro-2H-pyran-4-yloxy)benzonitrile], the IC50 is below 5 nM at IKKε (setting [3]), below 5 nM on IKKε (setting [2]) and 250 to 1000 nM in test [1] (setting [4]).

As for `N#Cc1cc(-c2ccnc(Nc3ccc(/C=C/CN4CCOCC4)nc3)n2)ccc1OC1CCOCC1` [Example Compound 94, 5-[2-({6-[(1E)-3-(Morpholin-4-yl)prop-1-en-1-yl]pyridin-3-yl}amino)pyrimidin-4-yl]-2-(tetrahydro-2H-pyran-4-yloxy)benzonitrile], the IC50 on IKKε (setting [2]) is below 5 nM; in test [1], 100 to 250 nM.

As for `COC1CN(C(=O)c2ncc(Nc3nccc(-c4ccc(OC5CCOCC5)c(C#N)c4)n3)n2C)C1` [Example Compound 102, 5-[2-({2-[(3-Methoxyazetidin-1-yl)carbonyl]-1-methyl-1H-imidazol-5-yl}amino)pyrimidin-4-yl]-2-(tetrahydro-2H-pyran-4-yloxy)benzonitrile], the IC50 was below 5 nM on IKKε (setting [3]), below 5 nM on IKKε (setting [2]) and 100 to 250 nM in test [1].

As for `CC(C)COc1ccc(-c2ccnc(Nc3ccc(N(C)CCO)nc3)n2)cc1C#N` [Example Compound 109, 5-[2-({6-[(2-Hydroxyethyl)(methyl)amino]pyridin-3-yl}amino)pyrimidin-4-yl]-2-(2-methylpropoxy)benzonitrile], the results for the IC50 (at IKKε (setting [3]); at IKKε (setting [2]); in test [1]) were below 5 nM, below 5 nM and 100 to 250 nM, respectively.

In the case of `CCN(CC)c1ccc(Nc2nccc(-c3ccc(O[C@@H]4CCN(C(=O)CO)C4)c(C#N)c3)n2)cn1` [Example Compound 117, 5-(2-{[6-(Diethylamino)pyridin-3-yl]amino}pyrimidin-4-yl)-2-{[(3R)-1-(hydroxyacetyl)pyrrolidin-3-yl]oxy}benzonitrile], the IC50 at IKKε (setting [3]) was below 5 nM; at IKKε (setting [2]), below 5 nM; in test [1] (setting [4]) it was 250 to 1000 nM.

As to `N#Cc1cc(-c2ccnc(Nc3ccc(N4CCOCC4)nc3)n2)ccc1O[C@@H]1CCN(C(=O)CO)C1` [Example Compound 119, 2-{[(3R)-1-(Hydroxyacetyl)pyrrolidin-3-yl]oxy}-5-(2-{[6-(morpholin-4-yl)pyridin-3-yl]amino}pyrimidin-4-yl)benzonitrile], the 50% inhibitory concentration (IC50) was below 5 nM at IKKε (setting [3]), below 5 nM on IKKε (setting [2]) and 100 to 250 nM in test [1].

`Cc1cc(Nc2nccc(-c3ccc(O[C@@H]4CCN(C(=O)CO)C4)c(C#N)c3)n2)ccn1` [Example Compound 123, 2-{[(3R)-1-(Hydroxyacetyl)pyrrolidin-3-yl]oxy}-5-{2-[(2-methylpyridin-4-yl)amino]pyrimidin-4-yl}benzonitrile]: the IC50 on IKKε (setting [2]) is below 5 nM; in test [1] (setting [4]), 250 to 1000 nM.

For `Cn1cc(-c2cc(Nc3nccc(-c4ccc(O[C@@H]5CCN(C(=O)CO)C5)c(C#N)c4)n3)ccn2)cn1` [Example Compound 126, 2-{[(3R)-1-(Hydroxyacetyl)pyrrolidin-3-yl]oxy}-5-(2-{[2-(1-methyl-1H-pyrazol-4-yl)pyridin-4-yl]amino}pyrimidin-4-yl)benzonitrile], the IC50 is below 5 nM at IKKε (setting [2]) and 1000 to 5000 nM in test [1].

As to `Cc1ccc(Nc2nccc(-c3ccc(OC4CCN(C(=O)[C@H](C)O)CC4)c(C#N)c3)n2)cn1` [Example Compound 128, 2-({1-[(2S)-2-Hydroxypropanoyl]piperidin-4-yl}oxy)-5-{2-[(6-methylpyridin-3-yl)amino]pyrimidin-4-yl}benzonitrile], the figures for the IC50 (at IKKε (setting [3]); on IKKε (setting [2]); in test [1]) were below 5 nM, below 5 nM and 1000 to 5000 nM, respectively.

`Cc1ccc(Nc2nccc(-c3ccc(OC4CCN(C(=O)CO)CC4)c(C#N)c3)n2)cn1` [Example Compound 130, 2-{[1-(Hydroxyacetyl)piperidin-4-yl]oxy}-5-{2-[(6-methylpyridin-3-yl)amino]pyrimidin-4-yl}benzonitrile]: the IC50 on IKKε (setting [2]) was below 5 nM; in test [1], 1000 to 5000 nM.

`COc1cc(Nc2nccc(-c3ccc(OC4CCN(C(=O)CO)CC4)c(C#N)c3)n2)ccn1` [Example Compound 131, 2-{[1-(Hydroxyacetyl)piperidin-4-yl]oxy}-5-{2-[(2-methoxypyridin-4-yl)amino]pyrimidin-4-yl}benzonitrile]: the IC50 on IKKε (setting [2]) is below 5 nM; in test [1], 100 to 250 nM.

Regarding `CN(C)c1ccc(Nc2nccc(-c3ccc(NC(=O)C4CC4)c(C#N)c3)n2)cn1` [Example Compound 138, N-[2-Cyano-4-(2-{[6-(dimethylamino)pyridin-3-yl]amino}pyrimidin-4-yl)phenyl]cyclopropanecarboxamide], the IC50 at IKKε (setting [3]) is below 5 nM; on IKKε (setting [2]) it was below 5 nM; in test [1] it was below 100 nM.

Consider `CCN(CC)c1ccc(Nc2nccc(-c3ccc(NC(=O)C4CC4)c(C#N)c3)n2)cn1` [Example Compound 139, N-[2-Cyano-4-(2-{[6-(diethylamino)pyridin-3-yl]amino}pyrimidin-4-yl)phenyl]cyclopropanecarboxamide], for which the values for the IC50 (on IKKε (setting [3]); at IKKε (setting [2]); in test [1] (setting [4])) were below 5 nM, below 5 nM and 250 to 1000 nM, respectively.

For the compound `N#Cc1cc(-c2ccnc(Nc3ccnc(N4CCN(CCO)CC4)c3)n2)ccc1NC(=O)C1CC1` [Example Compound 143, N-{2-Cyano-4-[2-({2-[4-(2-hydroxyethyl)piperazin-1-yl]pyridin-4-yl}amino)pyrimidin-4-yl]phenyl}cyclopropanecarboxamide], the IC50 at IKKε (setting [3]) is below 5 nM; at IKKε (setting [2]), below 5 nM; in test [1], below 100 nM.
